Results reported in article PMC9474773, “PARP targeted Auger emitter therapy with [^125I]PARPi-01 for triple-negative breast cancer” (EJNMMI Research, 2022).
Entries after “also recorded” stand apart in the source; their conditions may differ.

Tests used:
MDA-MB-231 cells = test system: MDA-MB-231 cells; design: method as in PMID 35008392; settings: cited from earlier work
[1] = test system: subcutaneous MDA-MB-231 models; assay: Endogenous therapy study (CT-based tumour growth, survival, [18F]FDG PET); type: in vivo, NOD/SCID mice
Procedure: Female NOD/SCID mice at 5–6 weeks of age (Janvier, France) was used for developing subcutaneous TNBC tumour. Animals were housed in 20–24 °C in a 12 h day light cycle. For each mouse, 3 × 10^6 MDA-MB-231 cells were suspended in a 1:1 (volume) mixture of Culture media: Matrigel® matrix (Corning®, Product No: 356237). Mice were inoculated with this cell suspension (max 200 µl) subcutaneously in the right flank. Tumour growth was monitored daily using calliper measurements. Tumour volume was calculated daily according to the formula Tumourvolume=TumourLength×Tumourbreadth^2×0.52
Upon reaching of a tumour volume of 500 mm^3, animals were proceeded for experiments. For biodistribution study animals were administered with [^123I]PARPi-01 (n = 3). For therapy studies animals were randomized for control (n = 10) or [^125I]PARPi-01 administration (n = 10). Randomisation was done based on equivalent distribution of tumour volumes. In addition to the daily calliper measurements image analysis of CT based tumour volumes was blinded to avoid bias. Animals were sacrificed upon completion of biodistribution study or upon reaching a humane end point for the therapy study. Humane end point is determined as reaching of either of the following conditions: 15 mm tumour diameter, 1500 mm^3 tumour volume, or development of ulcers/ascites.
Mice were administered intravenously via lateral tail vain with Saline (0.9% NaCl) or [^125I]PARPi-01 (8.15 ± 2.9 MBq/dose) in four doses at 10-day intervals. The tumour volume was measured using [^18F]FDG based PET/CT (Trifoil, USA) once per week. [^18F]FDG (2.3 ± 0.4 MBq, AAA, Düsseldorf, Germany) was intraperitoneally administered and scanned 30 min later. Upon reaching 520 mm^3 tumour volume, one additional CT imaging per week (Trifoil, USA) apart from the PET/CT was performed for monitoring tumour growth.
After injection with [^18F]FDG, the mice were placed on the scanner bed and the CT scan was initiated. The exposure settings used were as follows: 130 uA, 75 kVp, 230 ms exposure time, and 360° rotation with 512 views; the duration of the CT scans was ~ 5 min. A dynamic 30 min PET scan was initiated at the end of the CT scan. […] During the scans, the isoflurane concentration was adapted to achieve a respiratory rate between 75–50 breaths per minute. Mice were maintained at 1% Isoflurane and heated at 37 °C from anaesthesia induction to the end of imaging. The CT images were reconstructed using a Feldkamp filtered back projection reconstruction process to a voxel size of 0.154 × 0.154 × 0.154 mm in a 592 × 592 × 560 matrix. Using vendor software, the CT values were converted into Hounsfield units (HU) using the following formula HU=1000×μt-μw÷μw where µw is the linear attenuation coefficient of the water and µt is the linear attenuation coefficient of the tissue. The PET data were reconstructed using a 3D ordered-subset expectation maximization (i.e., OSEM-3D with three iterations and eight subsets) with a maximum a posteriori probability algorithm (30 iterations) into a 240 × 240 × 192 image matrix (resulting in final voxel dimensions of 0.25 × 0.25 × 0.597 mm). PET normalization, CT attenuation correction, and CT scatter correction were applied to all PET reconstructions. The PET images were automatically aligned to the CT using a custom-made transformation in PMOD software package from a capillary phantom.
All statistical analyses were performed using the Graph-Pad Prism software (Version 9.1.1). Biodistribution data is expressed as mean ± standard deviation. Kaplan–Meier Survival curve was analysed using survival analysis (Log rank Mantel-Cox test). The data points of the normalized tumour volume as a function of the time of the groups (Control, ^125I-PARPi, Control—excluded ulcers, ^125I-PARPi—excluded ulcers) were subjected to nonlinear regression analysis using the exponential growth formula Y = Y0*exp(k*x) (Malthusian). Accordingly, the doubling time is equal to ln(2)/k. […]

[2] = test system: MDA-MB-231 tumour tissue, liver, thyroid; assay: Apoptosis (TUNEL) staining of ex vivo tissue sections; type: in vivo, NOD/SCID mice
Procedure: Organs excised and retrieved from control (n = 3) and therapy mice (n = 3) were fixed with 4% PFA overnight at 4 °C. For cryopreservation, the organs were kept for 2–3 days at 4 °C in 30% sucrose Cryosections (6 µm) of excised and preserved organs were made using a cryostat (Leica, CM3050S). For TUNEL fluorescence quantification, therapy mice (n = 3) and control mice (n = 3) slices were stained simultaneously. The TUNEL staining kit (Roche # 11684795910) was used and protocol was followed as mentioned in the staining kit. Tissues were washed with PBS and permeabilised with 0.1 % Triton-X in 0.1 % […] on ice for 2 min. Following permeabilization, sections were incubated with TUNEL reaction mixture (Fluorescence labelled Terminal deoxynucleotidyl transferase enzyme dissolved in nucleotide buffer) for 1 h at 37 °C. After PBS wash, the cells were mounted with RotiMount® Vectashield containing DAPI and analysed using fluorescence microscopy (Zen Lite, Carl Zeiss). The images were processed and quantified using CellProfiler 3.0 software.

In the case of O=C(c1ccc([125I])cc1)N1CCN(C(=O)c2cc(Cc3n[nH]c(=O)c4ccccc34)ccc2F)CC1 [[^125I]PARPi-01], the “level of apoptosis induction” value (MDA-MB-231 cells) is given as “remained comparable low”, the “radiotoxicity in liver and thyroid” value ([1]; 4 doses, 10 MBq/dose) is given as “No radiotoxicity was detected” and the tumour doubling time ([1]; CT-based, excluding animals sacrificed for ulcers/ascites, n = 5) is given as 15.07 days. The tumour doubling time ([1]; CT-image-based, 4 doses 10 days apart, all animals n = 10) was 14.2 days, the median survival ([1]; all animals n = 10, not significant vs control (P = 0.2505)) was 36 days and the median survival time ([1]; excluding animals sacrificed for ulcers/ascites) was 38. The “[18F]FDG PET SUV values and tumour metabolic volumes, therapy vs control” value ([1]; mouse, in vivo) was “did not show significant difference”, the “apoptosis in liver or thyroid” value ([2]; therapy group) was “did not show any noticeable apoptosis; also recorded: no noticeable apoptosis” and the “percentage of nuclei in tumour positive for apoptosis” value ([2]; therapy group n = 3, P < 0.05 vs control) was 52.5 ± 19.0%.
